Experimental data from US20240279302A1, “OLFACTORY RECEPTOR EXPRESSING METHOD AND RESPONSE MEASUREMENT METHOD” (Kao Corporation, priority 2021, published 2024).
pEC50: −log10 of the molar value.

Legend:
consensus OR2T27 = molecular target: T1, consensus OR2T27 (Homo sapiens, UniProt Q8NH04, A21T/G216A/G235R/H131R/I13V/I140V/K45M/L36V/R69M/S88G/T37I/V304A/V305L/V43T/V8M/W142L); assay: Luciferase assay, sulfur compounds; type: cell-based; conditions: in the presence of a copper ion
T1 construct: expressed in transfected cells; host or cells: HEK293

consensus OR4K17 = molecular target: T2, consensus OR4K17 (Homo sapiens, UniProt Q8NGC6, A163V/E24Q/F120Y/F158L/G263S/I192T/I205M/I296T/I46V/K226R/L86V/P230S/S297A/V197I/V23I/V81M/V91T); assay: Luciferase assay, sulfur compounds; type: cell-based
T2 construct: expressed in transfected cells; host or cells: HEK293
T2 sequence (Q8NGC6 with tags, fused parts or gaps V23I/E24Q/I46V/V81M/L86V/V91T/F120Y/F158L/A163V/I192T/V197I/I205M/K226R/P230S/G263S/I296T/S297A): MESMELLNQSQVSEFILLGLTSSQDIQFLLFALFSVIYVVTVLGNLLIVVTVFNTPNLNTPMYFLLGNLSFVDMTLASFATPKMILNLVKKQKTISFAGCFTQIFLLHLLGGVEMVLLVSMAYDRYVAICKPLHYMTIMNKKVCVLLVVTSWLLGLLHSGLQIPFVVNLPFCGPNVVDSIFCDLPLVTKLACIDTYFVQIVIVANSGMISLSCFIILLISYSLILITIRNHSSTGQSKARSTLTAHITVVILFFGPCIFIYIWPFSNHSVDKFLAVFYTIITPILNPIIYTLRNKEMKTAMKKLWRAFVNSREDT

OR4C15 = OR4C15 (Homo sapiens, UniProt Q8NGM1); conditions: JP-A-2020-510436; cited from earlier work
consensus OR6B1 = molecular target: T3, consensus OR6B1 (Homo sapiens, UniProt O95007, C165R/C227R/F212S/I201V/I253T/L3V/L50Q/L96H/N89S/S282A/T195A/V262A); assay: Luciferase assay, sulfur compounds; type: cell-based; conditions: in the presence of a copper ion
T3 construct: expressed in transfected cells; host or cells: HEK293

OR2L13 = OR2L13 (Homo sapiens, UniProt Q8N349); conditions: JP-A-2020-510436; cited from earlier work
OR2T1 = conditions: in the presence of a metal ion (JP-B-6122181); cited from earlier work
[1] = in the presence of a copper ion

T1 sequence (Q8NH04 with tags, fused parts or gaps with the stated changes): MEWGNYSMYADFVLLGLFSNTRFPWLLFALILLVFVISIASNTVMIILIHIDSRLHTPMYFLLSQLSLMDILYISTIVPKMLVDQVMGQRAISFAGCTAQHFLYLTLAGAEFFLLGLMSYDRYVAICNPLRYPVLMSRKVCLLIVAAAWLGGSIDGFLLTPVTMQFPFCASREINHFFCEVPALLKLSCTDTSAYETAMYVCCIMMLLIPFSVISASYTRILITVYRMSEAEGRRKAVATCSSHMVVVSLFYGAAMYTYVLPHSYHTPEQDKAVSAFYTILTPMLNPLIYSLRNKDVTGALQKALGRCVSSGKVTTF
OR4C15, sequence (Q8NGM1 whole entry): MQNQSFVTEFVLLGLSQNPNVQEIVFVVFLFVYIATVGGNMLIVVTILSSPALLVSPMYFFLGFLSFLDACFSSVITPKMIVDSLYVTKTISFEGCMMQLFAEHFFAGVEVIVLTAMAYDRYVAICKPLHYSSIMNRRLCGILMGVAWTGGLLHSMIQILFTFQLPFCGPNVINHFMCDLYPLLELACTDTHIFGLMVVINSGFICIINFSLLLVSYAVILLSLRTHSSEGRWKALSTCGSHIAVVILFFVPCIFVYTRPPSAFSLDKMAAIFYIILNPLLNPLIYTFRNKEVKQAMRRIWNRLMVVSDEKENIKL
OR2L13, sequence (Q8N349 whole entry): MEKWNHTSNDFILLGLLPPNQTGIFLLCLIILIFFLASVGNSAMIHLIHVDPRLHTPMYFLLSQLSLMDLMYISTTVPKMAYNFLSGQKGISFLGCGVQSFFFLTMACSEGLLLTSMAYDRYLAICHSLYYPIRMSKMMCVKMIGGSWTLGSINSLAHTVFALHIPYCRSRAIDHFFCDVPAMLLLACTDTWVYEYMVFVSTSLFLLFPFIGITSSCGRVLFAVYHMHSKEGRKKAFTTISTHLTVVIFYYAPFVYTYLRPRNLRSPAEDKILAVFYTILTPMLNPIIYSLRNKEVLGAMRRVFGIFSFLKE
T3 sequence (O95007 whole entry L3V/L50Q/N89S/L96H/C165R/T195A/I201V/F212S/C227R/I253T/V262A/S282A): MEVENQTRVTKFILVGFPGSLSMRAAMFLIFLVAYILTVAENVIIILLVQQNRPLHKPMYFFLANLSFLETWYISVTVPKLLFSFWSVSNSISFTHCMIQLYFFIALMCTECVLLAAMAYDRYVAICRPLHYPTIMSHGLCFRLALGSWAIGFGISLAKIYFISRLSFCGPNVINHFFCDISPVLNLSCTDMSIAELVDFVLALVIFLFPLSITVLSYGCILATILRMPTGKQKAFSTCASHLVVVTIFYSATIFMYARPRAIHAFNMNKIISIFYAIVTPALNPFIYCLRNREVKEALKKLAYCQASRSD

| SMILES | response of consensus OR2T27 (consensus OR2T27) | pEC50 (consensus OR4K17) | dose dependence of the response of consensus OR4K17 (consensus OR4K17; [1]) | response of consensus OR4K17 (consensus OR4K17; [1]) | response of OR4C15 (OR4C15) | response of consensus OR6B1 (consensus OR6B1) | response of OR2L13 (OR2L13) | response of OR2T1 (OR2T1) |
| --- | --- | --- | --- | --- | --- | --- | --- | --- |
| CSSC [dimethyl disulfide] | responded | 3.25 | dose-dependent response | responded |  |  |  |  |
| CSSSC [dimethyl trisulfide] |  |  |  |  | respond | responded | respond |  |
| CS [methyl mercaptan] | responded |  |  | responded |  |  |  | respond |
